Experimental data taken from ChEMBL document CHEMBL4732094, “Synthesis of some new benzoxazole derivatives and investigation of their anticancer activities” (Eur J Med Chem, 2021).

Assays:
[1] = Selectivity index, ratio of IC50 for cytotoxicity against mouse NIH3T3 cells to IC50 for cytotoxicity against human A549 cells; format: toxicity, cell-based; details: NIH3T3 cells versus A549 cells, read-out: Ratio IC50
HT-29 = experiment: Cytotoxicity against human HT-29 cells assessed as cell viability measured after 24 hrs by MTT assay; format: functional, cell-based; details: HT-29, 24 h
[2] = Selectivity index, ratio of IC50 for cytotoxicity against mouse NIH3T3 cells to IC50 for cytotoxicity against rat C6 cells; format: toxicity, cell-based; details: NIH3T3 cells versus C6 cells, read-out: Ratio IC50
[3] = Selectivity index, ratio of IC50 for cytotoxicity against mouse NIH3T3 cells to IC50 for cytotoxicity against human HT-29 cells; format: toxicity, cell-based; details: NIH3T3 cells versus HT-29 cells, read-out: Ratio IC50
NIH3T3 = experiment: Cytotoxicity against mouse NIH3T3 cells assessed as cell viability measured after 24 hrs by MTT assay; format: cell-based; details: NIH3T3, 24 h
[4] = Selectivity index, ratio of IC50 for cytotoxicity against mouse NIH3T3 cells to IC50 for cytotoxicity against human HepG2 cells; format: toxicity, cell-based; details: NIH3T3 cells versus HepG2 cells, read-out: Ratio IC50
MCF7 = experiment: Cytotoxicity against human MCF7 cells assessed as cell viability measured after 24 hrs by MTT assay; format: functional, cell-based; details: MCF7, 24 h
HepG2 = experiment: Cytotoxicity against human HepG2 cells assessed as cell viability measured after 24 hrs by MTT assay; format: functional, cell-based; details: HepG2, 24 h
C6 = experiment: Cytotoxicity against rat C6 cells assessed as cell viability measured after 24 hrs by MTT assay; format: functional, cell-based; details: C6, 24 h
[5] = Selectivity index, ratio of IC50 for cytotoxicity against mouse NIH3T3 cells to IC50 for cytotoxicity against human MCF7 cells; format: toxicity, cell-based; details: NIH3T3 cells versus MCF7 cells, read-out: Ratio IC50
A549 = experiment: Cytotoxicity against human A549 cells assessed as cell viability measured after 24 hrs by MTT assay; format: functional, cell-based; details: A549, 24 h

| Structure (SMILES) | selectivity ratio [1] | IC50 (HT-29) [µM] | selectivity ratio [2] | selectivity ratio [3] | IC50 (NIH3T3) [µM] | selectivity ratio [4] | IC50 (MCF7) [µM] | IC50 (HepG2) [µM] | IC50 (C6) [µM] | selectivity ratio [5] | IC50 (A549) [µM] |
| --- | --- | --- | --- | --- | --- | --- | --- | --- | --- | --- | --- |
| Cc1cc(-c2nc3cc(F)ccc3o2)ccc1NC(=O)CN1CCN(CCN(C)C)CC1 | 8.42 | 6.6 | 5.8 | 9.41 | 62.1 | 6.56 | 10.4 | 9.46 | 10.7 | 5.96 | 7.37 |
| Cc1cc(-c2nc3cc(Cl)ccc3o2)ccc1NC(=O)CCl | 0.09 | > 100 | < 0.09 | < 0.09 | 8.64 | 0.25 | > 100 | 35 | > 100 | < 0.09 | 91.5 |
| CN(C)CCCN1CCN(CC(=O)Nc2ccc(-c3nc4ccccc4o3)cc2)CC1 | 0.91 | 10.6 | 0.39 | 1.57 | 16.7 | 1.76 | 23.4 | 9.5 | 42.3 | 0.71 | 18.3 |
| CN(C)CCN1CCN(CC(=O)Nc2ccc(-c3nc4ccccc4o3)cc2)CC1 | 1.92 | 5.31 | 5.11 | 6.74 | 35.8 | 2.2 | 59.4 | 16.3 | 7.01 | 0.6 | 18.7 |
| Cc1cc(-c2nc3cc(Cl)ccc3o2)ccc1NC(=O)CN1CCN(CCCN(C)C)CC1 | 2.73 | 9.15 | 2.01 | 3.12 | 28.6 | 2.56 | 63.4 | 11.2 | 14.2 | 0.45 | 10.5 |
| Cc1cc(-c2nc3ccccc3o2)ccc1NC(=O)CCl | 0.36 | 13.8 | 0.45 | 0.88 | 12.2 | 0.82 | 29.8 | 14.8 | 27.2 | 0.41 | 33.5 |
| Cc1cc(-c2nc3cc(F)ccc3o2)ccc1NC(=O)CCl | 0.16 | 25.4 | < 0.11 | 0.41 | 10.5 | 0.63 | > 100 | 16.6 | > 100 | < 0.11 | 64.5 |
| Cc1cc(-c2nc3ccccc3o2)ccc1NC(=O)CN1CCN(CCN(C)C)CC1 | 2.09 | 12.9 | 1.49 | 4.94 | 63.5 | 3.2 | 41.6 | 19.9 | 42.7 | 1.53 | 30.5 |
| CN(C)CCCN1CCN(CC(=O)Nc2ccc(-c3nc4cc(F)ccc4o3)cc2)CC1 | 1.8 | 2.59 | 0.8 | 8.46 | 21.9 | 2.39 | 14.8 | 9.18 | 27.5 | 1.49 | 12.2 |
| Cc1ccc2oc(-c3ccc(NC(=O)CCl)c(C)c3)nc2c1 | 0.11 | 13.8 | 0.07 | 0.49 | 6.79 | 0.12 | 96.5 | 54.8 | 97.6 | 0.07 | 61.8 |
| Cc1cc(-c2nc3cc(Cl)ccc3o2)ccc1NC(=O)CN1CCN(CCN(C)C)CC1 | 0.79 | 13.2 | 1.43 | 1.45 | 19.2 | 4.95 | 39.3 | 3.88 | 13.5 | 0.49 | 24.4 |
